PubChem BioAssay (NCI)
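Protocol summary: plate cells (96-well), add compound at 5 concentrations, incubate 48 h, interpolate endpoints linearly. At the GI50, growth is halved. TGI is the concentration that stops growth completely.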

Legend:
Experiment in all cases: NCI anticancer screen, dose series, 48 h
A549 NSCLC = test system: A549 NSCLC
ACHN renal = test system: ACHN renal
HOP-92 NSCLC = test system: HOP-92 NSCLC
KM12 colon = test system: KM12 colon
NCI-H226 lung = test system: NCI-H226 lung
NCI-H23 lung = test system: NCI-H23 lung
OVCAR-4 ovarian = test system: OVCAR-4 ovarian
U251 CNS = test system: U251 CNS
OVCAR-5 ovarian = test system: OVCAR-5 ovarian

SMILES | TGI (A549 NSCLC) | TGI (ACHN renal) | TGI (HOP-92 NSCLC) | TGI (KM12 colon) | TGI (NCI-H226 lung) | TGI (NCI-H23 lung) | TGI (OVCAR-4 ovarian) | TGI (U251 CNS) | TGI (OVCAR-5 ovarian) | GI50 (A549 NSCLC) | GI50 (ACHN renal) | GI50 (HOP-92 NSCLC) | GI50 (KM12 colon) | GI50 (NCI-H226 lung) | GI50 (NCI-H23 lung) | GI50 (OVCAR-4 ovarian) | GI50 (OVCAR-5 ovarian) | GI50 (U251 CNS)
CC(C)(C)[Si](Nc1ccccc1)(c1ccccc1)c1ccccc1 | 28.2 µM | 30.1 µM | 28.3 µM | 27.4 µM | 29.8 µM | 32.8 µM | 27.1 µM | 26.8 µM |  |  |  |  |  |  |  |  |  | 
CN(C)C(=S)/N=c1\ssc(=S)n1Cc1ccccn1 | > 100 µM | > 100 µM | 64.5 µM | > 48 µM | > 100 µM | > 100 µM | > 52.3 µM | > 100 µM | > 100 µM |  |  |  |  |  |  |  |  | 
COc1cc(CCC(=O)NS(=O)(=O)c2ccccc2)cc(OC)c1OC | > 100 µM | > 100 µM | > 100 µM | > 100 µM | > 100 µM | > 100 µM | > 100 µM | > 100 µM | > 100 µM |  |  |  |  |  |  |  |  | 
O=C(Cc1ccccc1)NN1C(=O)C(Cl)C1c1ccccc1 (stereo unspecified) | > 100 µM | > 100 µM |  | > 100 µM | > 100 µM | > 100 µM | > 100 µM | > 100 µM | > 100 µM |  |  |  |  |  |  |  |  | 
CCCCCCCCCCCCCCCCCCOCC1(COP(=O)([O-])OCC[N+](C)(C)C)CCCO1 (stereo unspecified) | 20.6 µM | 19.4 µM | 6.09 µM | 3.33 µM | 20.1 µM | 31.9 µM | 8.38 µM | 7.03 µM | 25.1 µM |  |  |  |  |  |  |  |  | 
COC(=O)C1CCC(N2C(=O)CCC2C(=O)OC)=N1 (stereo unspecified) | > 100 µM | > 100 µM | > 100 µM | > 100 µM | > 100 µM | > 100 µM | > 100 µM | > 100 µM | > 100 µM |  |  |  |  |  |  |  |  | 
Cc1cccc(NC(=O)Cc2nc3ccccc3s2)c1C | > 100 µM | > 100 µM |  | > 100 µM | > 100 µM | > 100 µM | > 100 µM |  | > 100 µM |  |  |  |  |  |  |  |  | 
O=C(Cc1nc2ccccc2s1)C(=O)Nc1ccc(Cl)cc1Cl | > 100 µM | > 100 µM | > 100 µM | > 100 µM | > 100 µM | > 100 µM | > 100 µM | > 100 µM | > 100 µM |  |  |  |  |  |  |  |  | 
O=C(O)C1=C(Cl)c2ccccc2S1(=O)=O | > 100 µM |  | > 100 µM | > 100 µM |  | > 100 µM | > 100 µM |  | > 100 µM |  |  |  |  |  |  |  |  | 
CCCCCCCCCCCCOC(=S)NC |  | 35.2 µM | 31.5 µM | 27.8 µM | 15.2 µM | 40.9 µM | 56 µM | 32.8 µM | 25.3 µM |  |  |  |  |  |  |  |  | 
O/N=C1/C(=C/c2ccc(Cl)cc2)CCCC1C(NO)c1ccc(Cl)cc1 (stereo unspecified) | 57.4 µM | > 100 µM |  | 40.6 µM |  | 54 µM | 32.8 µM | 50.8 µM |  |  |  |  |  |  |  |  |  | 
C/C(CC(=O)Nc1ccc(NC(=O)/C(C)=N/NS(=O)(=O)c2ccc(C)cc2)cc1)=N\NS(=O)(=O)c1ccc(C)cc1 | > 100 µM | > 100 µM | > 100 µM | > 100 µM | > 100 µM | > 100 µM |  | > 100 µM | > 100 µM |  |  |  |  |  |  |  |  | 
COc1cc(C(=C2SCCS2)c2nccc3cc(OC)c(OC)cc23)c([N+](=O)[O-])cc1OC | > 100 µM | > 100 µM | > 100 µM | > 100 µM | > 100 µM | > 100 µM |  | > 100 µM | > 100 µM |  |  |  |  |  |  |  |  | 
CN(C)NC(=S)NC12CC3CC(CC(C3)C1)C2 | > 100 µM | > 100 µM | > 100 µM | > 100 µM | > 100 µM | > 100 µM | > 100 µM | > 100 µM | > 100 µM |  |  |  |  |  |  |  |  | 
O/N=C1/C(=C/c2ccccc2)CCCC1C(NO)c1ccccc1 (stereo unspecified) | > 100 µM | > 100 µM | > 100 µM | > 100 µM |  | > 100 µM | > 100 µM |  | > 100 µM |  |  |  |  |  |  |  |  | 
CN(C(=O)C1CC1)C1C2CN3CCC(O2)C13 (stereo unspecified) | > 100 µM | > 100 µM | > 100 µM | > 100 µM | > 100 µM | > 100 µM | > 100 µM | > 100 µM | > 100 µM |  |  |  |  |  |  |  |  | 
O=C1C(Nc2cccc(O)c2)=C(Sc2ccc(Cl)cc2)C(=O)N1Cc1ccccc1 | 35.9 µM | 27 µM | 30.7 µM | 27.8 µM | > 100 µM | 37.5 µM | > 100 µM | 29.4 µM | 55 µM | 5.38 µM | 9.33 µM | 4.73 µM | 10.6 µM | 32.6 µM | 6.77 µM | 14.1 µM | 21.1 µM | 10.3 µM
COC(=O)NN=C1C(C)(C)C(=NNC(=O)OC)C1(C)C | > 100 µM | > 100 µM | > 100 µM | > 100 µM | > 100 µM | > 78.1 µM | > 100 µM | > 100 µM | > 100 µM |  |  |  |  |  |  |  |  | 
